The values that follow come from patent US11584737B2, “Heterocyclic compound” (TAKEDA PHARMACEUTICAL COMPANY LIMITED, priority 2018, dated 2023).

CDK12/CycK complex, sequence (Q9NYV4 whole entry, species assumed): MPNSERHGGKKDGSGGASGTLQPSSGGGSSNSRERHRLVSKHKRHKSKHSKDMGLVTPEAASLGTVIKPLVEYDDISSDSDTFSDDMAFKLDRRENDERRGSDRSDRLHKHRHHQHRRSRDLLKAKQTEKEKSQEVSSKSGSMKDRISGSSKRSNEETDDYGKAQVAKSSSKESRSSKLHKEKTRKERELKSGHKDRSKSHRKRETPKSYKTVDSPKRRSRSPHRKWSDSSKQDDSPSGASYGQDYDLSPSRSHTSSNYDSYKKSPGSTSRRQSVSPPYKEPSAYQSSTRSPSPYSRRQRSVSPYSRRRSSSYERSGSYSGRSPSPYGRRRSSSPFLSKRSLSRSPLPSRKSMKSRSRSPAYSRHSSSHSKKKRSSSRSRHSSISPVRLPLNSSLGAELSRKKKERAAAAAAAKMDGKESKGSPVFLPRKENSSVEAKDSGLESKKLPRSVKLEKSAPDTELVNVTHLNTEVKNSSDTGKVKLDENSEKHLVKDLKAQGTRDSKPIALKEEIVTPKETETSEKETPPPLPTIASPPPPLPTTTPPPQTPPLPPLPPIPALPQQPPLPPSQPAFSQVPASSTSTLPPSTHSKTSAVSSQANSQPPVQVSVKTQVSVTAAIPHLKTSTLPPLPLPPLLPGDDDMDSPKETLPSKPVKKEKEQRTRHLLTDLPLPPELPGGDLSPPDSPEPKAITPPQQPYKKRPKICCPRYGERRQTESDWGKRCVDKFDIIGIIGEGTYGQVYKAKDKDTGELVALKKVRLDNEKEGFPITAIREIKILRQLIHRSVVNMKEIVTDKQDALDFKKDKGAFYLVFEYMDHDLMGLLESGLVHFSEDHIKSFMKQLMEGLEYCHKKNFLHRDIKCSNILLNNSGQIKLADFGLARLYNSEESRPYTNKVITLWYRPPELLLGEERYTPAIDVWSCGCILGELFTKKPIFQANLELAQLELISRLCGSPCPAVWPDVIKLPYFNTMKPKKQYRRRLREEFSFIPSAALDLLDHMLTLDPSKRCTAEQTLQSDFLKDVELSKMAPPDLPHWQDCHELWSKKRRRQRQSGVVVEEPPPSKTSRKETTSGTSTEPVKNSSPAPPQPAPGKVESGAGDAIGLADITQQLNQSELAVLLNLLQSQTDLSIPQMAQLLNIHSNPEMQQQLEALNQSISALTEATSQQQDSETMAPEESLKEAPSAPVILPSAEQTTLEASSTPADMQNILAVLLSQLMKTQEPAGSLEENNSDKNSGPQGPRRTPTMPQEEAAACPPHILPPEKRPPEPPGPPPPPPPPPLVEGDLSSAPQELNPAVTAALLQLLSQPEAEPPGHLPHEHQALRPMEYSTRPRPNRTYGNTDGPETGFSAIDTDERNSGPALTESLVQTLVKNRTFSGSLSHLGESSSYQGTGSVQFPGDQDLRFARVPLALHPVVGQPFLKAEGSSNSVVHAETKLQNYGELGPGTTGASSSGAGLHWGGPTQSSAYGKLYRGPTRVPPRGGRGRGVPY
CDK12/CycK complex, sequence (O75909 whole entry partner, species assumed): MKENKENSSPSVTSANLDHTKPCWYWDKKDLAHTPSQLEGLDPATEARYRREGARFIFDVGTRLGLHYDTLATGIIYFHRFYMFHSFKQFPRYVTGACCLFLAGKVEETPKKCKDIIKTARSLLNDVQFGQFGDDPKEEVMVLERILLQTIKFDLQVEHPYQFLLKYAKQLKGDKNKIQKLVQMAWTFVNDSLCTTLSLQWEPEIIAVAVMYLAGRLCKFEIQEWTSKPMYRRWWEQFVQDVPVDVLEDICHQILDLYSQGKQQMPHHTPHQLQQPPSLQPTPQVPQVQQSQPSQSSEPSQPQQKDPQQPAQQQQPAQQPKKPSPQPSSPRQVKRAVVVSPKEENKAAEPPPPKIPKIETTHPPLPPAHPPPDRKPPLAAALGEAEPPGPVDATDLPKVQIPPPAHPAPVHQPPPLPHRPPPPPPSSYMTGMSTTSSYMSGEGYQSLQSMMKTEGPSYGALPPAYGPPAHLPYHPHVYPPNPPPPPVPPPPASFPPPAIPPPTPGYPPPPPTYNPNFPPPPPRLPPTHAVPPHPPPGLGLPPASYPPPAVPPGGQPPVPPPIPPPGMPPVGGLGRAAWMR

The test addresses CDK12/CycK complex (Homo sapiens, UniProt Q9NYV4). Description: Measurement of CDK12 inhibitory activity by binding assay (TR-FRET, 66 nM BODIPY-FL-labeled AT-7519). The conditions noted are these: inhibitory rate against CDK12 at 1 μM test compound, 66 nM BODIPY-FL-labeled AT-7519, 2 nM CDK12/CycK. The procedure:
Experimental Example 1: CDK12 Binding Assay
(3) Measurement of CDK12 Inhibitory Activity by Binding Assay
His-tagged CDK12/CycK complex was added to a binding assay buffer supplemented with BODIPY-FL labeled AT-7519, terbium-labeled streptavidin and biotin-labeled anti-histidine antibody, and the mixture was stood for not less than 60 min at room temperature. This solution was added to an assay plate containing a test compound dispensed therein, and the mixture was left standing for 120 min at room temperature. The final concentration of CDK12/CycK complex, BODIPY-FL-labeled AT-7519, terbium-labeled streptavidin and biotin-labeled anti-histidine antibody was set to 2 nM, 66 nM, 0.2 nM, and 0.4 nM, respectively. The fluorescence intensity derived from terbium and BODIPY-FL was measured using Envision. The signal value of each well was determined using the TR-FRET ratio calculated by the following formula. TR-FRET ratio=(fluorescence value of BODIPY-FL)÷(fluorescence value of terbium)
The inhibitory rate (%) of the test compound against CDK12 was calculated by the following formula. Inhibitory rate (%)=(1−(TR-FRET ratio of test compound−blank)÷(control−blank))×100
The TR-FRET ratio of the CDK12 enzyme reaction mixture under compound non-addition conditions is indicated as control, and the TR-FRET ratio under 3 μM AT-7519 addition conditions is indicated as blank.
The inhibitory rate of the test compound against CDK12 at […] is shown below.
In general, inhibition refers to the relative decrease from the control value, in per cent. In the case of `Cn1cc(-c2ccc(N(C(=O)NCc3ccccc3)[C@H]3CC[C@H](Nc4ncc(C#N)c(NCCCO)n4)CC3)cc2)cn1` [Example 199, 3-benzyl-1-(trans-4-((5-cyano-4-((3-hydroxypropyl)amino)pyrimidin-2-yl)amino)cyclohexyl)-1-(4-(1-methyl-1H-pyrazol-4-yl)phenyl)urea], the inhibition at 1 µM came to 101%. In the case of `Cn1cc(-c2ccc(N(C(=O)NCc3ccccc3)[C@H]3CC[C@H](Nc4ncc(C#N)c(N5CC(C)(O)C5)n4)CC3)nc2)cn1` [Example 482, 3-benzyl-1-(trans-4-((5-cyano-4-(3-hydroxy-3-methylazetidin-1-yl)pyrimidin-2-yl)amino)cyclohexyl)-1-(5-(1-methyl-1H-pyrazol-4-yl)pyridin-2-yl) urea], the inhibition at 1 µM was 104%. Turning to `Cn1cc(-c2ccc(N(C(=O)NCc3ccccc3)[C@H]3CC[C@H](Nc4ncc(C#N)c(NC5COC5)n4)CC3)cc2)ccc1=O` [Example 483, 3-benzyl-1-(trans-4-((5-cyano-4-(oxetan-3-ylamino)pyrimidin-2-yl)amino)cyclohexyl)-1-(4-(1-methyl-6-oxo-1,6-dihydropyridin-3-yl)phenyl)urea], the inhibition at 1 µM came to 103%. On to `Cn1ccc(-c2ccc(N(C(=O)NCc3ccccc3)[C@H]3CC[C@H](Nc4ncc(C#N)c(-c5ccc(C#N)s5)n4)CC3)cn2)cc1=O` [Example 492, 3-benzyl-1-(trans-4-((5-cyano-4-(5-cyano-2-thienyl)pyrimidin-2-yl)amino)cyclohexyl)-1-(1′-methyl-2′-oxo-1′,2′-dihydro-2,4′-bipyridin-5-yl)urea], for which the inhibition at 1 µM came to 92%. For `Cn1cc(-c2cnc(N(C(=O)NCc3ccccc3)[C@H]3CC[C@H](Nc4ncc(C#N)c(-c5ccc(C#N)s5)n4)CC3)cn2)cn1` [Example 495, 3-benzyl-1-(trans-4-((5-cyano-4-(5-cyano-2-thienyl)pyrimidin-2-yl)amino)cyclohexyl)-1-(5-(1-methyl-1H-pyrazol-4-yl)pyrazin-2-yl)urea] the value was 81%. Then `Cn1cc(-c2ccc(N(C(=O)NCc3ccccc3)[C@H]3CC[C@H](Nc4ncc(C#N)c(NC5COC5)n4)CC3)nn2)cn1` [Example 532, 3-benzyl-1-(trans-4-((5-cyano-4-(oxetan-3-ylamino)pyrimidin-2-yl)amino)cyclohexyl)-1-(6-(1-methyl-1H-pyrazol-4-yl)pyridazin-3-yl)urea], with 106%; and `Cn1cc(-c2ccc(N(C(=O)NCc3ccccc3)[C@H]3CC[C@H](Nc4ncc(C#N)c(-c5ccc(C#N)s5)n4)CC3)nn2)cn1` [Example 538, 3-benzyl-1-(trans-4-((5-cyano-4-(5-cyano-2-thienyl)pyrimidin-2-yl)amino)cyclohexyl)-1-(6-(1-methyl-1H-pyrazol-4-yl)pyridazin-3-yl)urea], with 86%. As for `Cc1cc(-c2nc(N[C@H]3CC[C@H](N(C(=O)NCc4ccccc4)c4ccc(-c5cnn(C)c5)nn4)CC3)ncc2C#N)[nH]n1` [Example 542, 3-benzyl-1-(trans-4-((5-cyano-4-(3-methyl-1H-pyrazol-5-yl)pyrimidin-2-yl)amino)cyclohexyl)-1-(6-(1-methyl-1H-pyrazol-4-yl)pyridazin-3-yl)urea], the inhibition at 1 µM was 100%.

As to `Cc1cc(-c2nc(N[C@H]3CC[C@H](N(C(=O)NCc4ccccc4)c4cnc(-c5cnn(C)c5)cn4)CC3)ncc2C#N)[nH]n1` [Example 552, 3-benzyl-1-(trans-4-((5-cyano-4-(3-methyl-1H-pyrazol-5-yl)pyrimidin-2-yl)amino)cyclohexyl)-1-(5-(1-methyl-1H-pyrazol-4-yl)pyrazin-2-yl) urea], the inhibition at 1 µM turned out to be 98%. Turning to `COc1ncc(-c2ccc(N(C(=O)COc3ccccc3)[C@H]3CC[C@H](Nc4ncc(C#N)c(NC5COC5)n4)CC3)nc2)cn1` [Example 587, N-(trans-4-((5-cyano-4-(oxetan-3-ylamino)pyrimidin-2-yl)amino)cyclohexyl)-N-(5-(2-methoxypyrimidin-5-yl)pyridin-2-yl)-2-phenoxyacetamide], the inhibition at 1 µM was 102%.
